Like-named read-outs stand apart in the source and are kept apart here.
Key:
Experiment in all cases: Antibacterial screening, agar disc-diffusion method
Format in all cases: cell-based
Staphylococcus aureus = conditions: Gram positive, 6 mm disc, 10 μL of 10 mg/mL in DMSO, DMSO zone subtracted
Experimental: (§1) The antibacterial properties of the synthesized compound 2-amino-4-(4-bromophenyl)-6-methoxypyridine-3,5-dicarbonitrile were studied by the method of agar disc-diffusion method. Sterilized filter papers (6 mm in diameter) were wetted with 10 μL of a solution of 2-amino-4-(4-bromophenyl)-6-methoxypyridine-3,5-dicarbonitrile (3) to be tested, containing 10 mg/mL in DMSO, and the discs were allowed to air dry. The discs were then placed onto the surface of agar plates (nutrient agar for bacteria) seeded with the test organism. Each plate contained 15 mL of the agar medium, previously seeded with 0.2 mL of the broth culture of each organism pregrown for 18 hours. The inhibition zones was measured in mm. Discs impregnated with DMSO were used as a control, and its inhibition zone was subtracted from the tested compound actual inhibition zone. […] Their antibacterial screened against gram positive bacteria namely Bacillus cereus and Staphylococcus aureus and gram-negative bacterial strains namely Pseudomonas aeruginosa and Escherichia coli.

Bacillus Cereus = conditions: Gram positive, 6 mm disc, 10 μL of 10 mg/mL in DMSO, DMSO zone subtracted
Experimental: as §1

Escherichia coli = conditions: Gram negative, 6 mm disc, 10 μL of 10 mg/mL in DMSO, DMSO zone subtracted
Experimental: as §1

Pseudomonas aeruginosa = conditions: Gram negative, 6 mm disc, 10 μL of 10 mg/mL in DMSO, DMSO zone subtracted
Experimental: as §1

**Q.** COc1nc(N)c(C#N)c(-c2ccc(Br)cc2)c1C#N [Compound 3, 2-amino-4-(4-bromophenyl)-6-methoxypyridine-3,5-dicarbonitrile] was tested. Which zone of inhibition at 10000 µg/mL (Staphylococcus aureus; sub-column A (not defined), read-out: inhibition zone, Staphylococcus aureus, A) did it give?
**A.** 18 mm

**Q.** And the zone of inhibition at 10000 µg/mL (Staphylococcus aureus; sub-column B (not defined), read-out: inhibition zone, Staphylococcus aureus, B)?
**A.** 27 mm

**Q.** And the zone of inhibition at 10000 µg/mL (Staphylococcus aureus; sub-column C (not defined), read-out: inhibition zone, Staphylococcus aureus, C)?
**A.** 33 mm

**Q.** And the zone of inhibition at 10000 µg/mL (Bacillus Cereus; sub-column A (not defined), read-out: inhibition zone, Bacillus Cereus, A)?
**A.** 32 mm

**Q.** And the zone of inhibition at 10000 µg/mL (Bacillus Cereus; sub-column B (not defined), read-out: inhibition zone, Bacillus Cereus, B)?
**A.** 37 mm

**Q.** What about the zone of inhibition at 10000 µg/mL (Bacillus Cereus; sub-column C (not defined), read-out: inhibition zone, Bacillus Cereus, C) of the same molecule?
**A.** 40 mm

**Q.** And the zone of inhibition at 10000 µg/mL (Escherichia coli; sub-column A (not defined), read-out: inhibition zone, Escherichia coli, A)?
**A.** 39 mm

**Q.** And the zone of inhibition at 10000 µg/mL (Escherichia coli; sub-column B (not defined), read-out: inhibition zone, Escherichia coli, B)?
**A.** 41 mm

**Q.** And the zone of inhibition at 10000 µg/mL (Escherichia coli; sub-column C (not defined), read-out: inhibition zone, Escherichia coli, C)?
**A.** 46 mm

**Q.** What about the zone of inhibition at 10000 µg/mL (Pseudomonas aeruginosa; sub-column A (not defined), read-out: inhibition zone, Pseudomonas aeruginosa, A) of the same molecule?
**A.** 24 mm

**Q.** What about the zone of inhibition at 10000 µg/mL (Pseudomonas aeruginosa; sub-column B (not defined), read-out: inhibition zone, Pseudomonas aeruginosa, B) of the same molecule?
**A.** 34 mm

**Q.** What about the zone of inhibition at 10000 µg/mL (Pseudomonas aeruginosa; sub-column C (not defined), read-out: inhibition zone, Pseudomonas aeruginosa, C) of the same molecule?
**A.** 39 mm

Source: US12180162B1, “2-amino-4-(4-bromophenyl)-6-methoxypyridine-3,5-dicarbonitrile as an antibacterial compound” (KING FAISAL UNIVERSITY, priority 2023, dated 2024)
